# Test system: production of nitric oxide (NO) by murine macrophages (RAW 264.7 cell line) activated by lipopolysaccharide (LPS)
# Assay: Nitric oxide (NO) release by LPS-activated RAW 264.7 macrophages, Griess Reagent System
# Type: cell-based
# Experimental: In addition, positive control cells were treated with 20 μM dexamethasone.
SMILES,"NO inhibition by carvacrol alone (carvacrol only 0.05%, 0.1%, 0.15% solutions, dilutions 1:500,000, 1:200,000, 1:100,000)","NO inhibition by p-cymene alone (p-cymene only 0.1%, 0.25%, 0.5%, 0.75% solutions, final dilution 1:200,000)"
Cc1ccc(C(C)C)cc1O [carvacrol],None of the carvacrol-only dilutions caused any NO inhibition,–
Cc1ccc(C(C)C)cc1 [p-cymene],–,None of the p-cymene-only dilutions caused any NO inhibition

# From US11883455B2, “Nigella sativa oil composition” (N.S. OILS LTD., priority 2018, dated 2024)
